Assay results reported in patent US9139532B2, “Pyrazolyl guanidine F1F0-atpase inhibitors and therapeutic uses thereof” (Lycera Corporation, priority 2010, dated 2015).
Where two headings read alike, the source gives them in different places.

How the values were obtained:
Ramos cells = assay: Cytotoxicity in Ramos cells; assay type: cell-based; conditions: cytotoxicity in Ramos cells, read-out: Ramos Cell EC50
F1F0-ATPase = target: T1, F1F0-ATPase (Bos taurus, UniProt P13621); assay: Inhibition of F1F0-ATPase activity in synthesizing ATP; assay type: biochemical; conditions: inhibition of ATP synthesis by F1F0-ATPase; read-out: ATP Syn IC50
T1 construct: from tissue

Row | IC50 (F1F0-ATPase) | Compound | EC50 (Ramos cells; Homo sapiens) | EC50 (Ramos cells)
1 | < 10 µM | COCC(C)NC(=NC(=O)c1cccc(OC)c1)Nc1cc(C(F)(F)F)n[nH]1 (stereo not drawn) [Compound A-537] | < 10 µM | –
2 | < 10 µM | O=C(/N=C(\Nc1cc(-c2ccc(F)cc2)n[nH]1)NC1CCCC1)c1cccc(F)c1 [Compound A-388] | – | < 10 µM
3 | < 10 µM | Cc1ccc(-c2cc(N/C(=N\C(=O)c3ccc(F)c(F)c3)NC3CCC3)[nH]n2)cc1F [Compound A-320] | – | < 10 µM
4 | < 10 µM | COCC(C)NC(=NC(=O)c1ccc(Cl)cc1)Nc1cc(-c2cc(F)cc(F)c2)n[nH]1 (stereo not drawn) [Compound A-228] | – | > 10 µM
5 | < 10 µM | CC(C)(C)CN/C(=N/C(=O)c1ccc(C(F)(F)F)cc1)Nc1cc(C(F)F)[nH]n1 [Compound A-68] | < 10 µM | –
6 | < 10 µM | O=C(/N=C(/NCc1ccc(F)c(Cl)c1)Nc1cc(C(F)(F)F)[nH]n1)c1ccc(F)c(F)c1 [Compound A-25] | < 10 µM | –
7 | < 10 µM | CCC(C)NC(=NC(=O)c1ccc(F)c(F)c1)Nc1cc(-c2cc(F)cc(Cl)c2)n[nH]1 (stereo not drawn) [Compound A-285] | < 10 µM | –
8 | > 10 µM | O=C(N=C(Nc1cc(-c2ccc(F)cc2)n[nH]1)NC1CCOCC1)c1ccc(Cl)c(F)c1 [Compound A-139] | > 10 µM | –
9 | < 10 µM | CC1(CNC(=NC(=O)c2ccc(F)c(F)c2)Nc2cc(-c3ccc(Cl)cc3)n[nH]2)CCCO1 (stereo not drawn) [Compound A-211] | > 10 µM | –
10 | < 10 µM | O=C(/N=C(/NCc1nccs1)Nc1cc(C(F)(F)F)[nH]n1)c1ccc(F)cc1 [Compound A-411] | – | > 10 µM
11 | < 10 µM | CC(C)(C)NC(=NC(=O)c1ccc(F)c(F)c1)Nc1cc(-c2ccccc2)n[nH]1 [Compound A-435] | < 10 µM | –
12 | < 10 µM | Cc1ccc(-c2cc(N/C(=N\C(=O)c3ccc(Cl)c(F)c3)Nc3cc(F)cc(Cl)c3)n[nH]2)cc1 [Compound A-150] | – | < 10 µM
13 | – | CC1(N/C(=N/C(=O)c2ccc(Cl)c(F)c2)Nc2cc(-c3cc(F)cc(F)c3)n[nH]2)CCCC1 [Compound A-355] | – | > 10 µM
14 | < 10 µM | O=C(/N=C(\Nc1cc(C(F)(F)F)n[nH]1)NC1CCOCC1)c1ccc(F)c(F)c1 [Compound A-104] | > 10 µM | –
15 | < 10 µM | Cc1ccc(-c2cc(N/C(=N\C(=O)c3ccc(F)c(F)c3)NCc3ccc(F)cc3Cl)[nH]n2)cc1F [Compound A-317] | – | < 10 µM
16 | < 10 µM | O=C(/N=C(\Nc1cc(C(F)(F)F)n[nH]1)NC1CCC1)c1ccc(C(F)(F)F)cc1 [Compound A-91] | < 10 µM | –
17 | < 10 µM | O=C(/N=C(\Nc1cc(C(F)(F)F)[nH]n1)NC(C1CC1)C1CC1)c1ccc(Cl)cc1 [Compound A-7] | < 10 µM | –
18 | < 10 µM | CC(C)C(C)NC(=NC(=O)c1ccc(Cl)c(F)c1)Nc1cc(-c2cc(F)cc(F)c2)n[nH]1 (stereo not drawn) [Compound A-351] | < 10 µM | –
19 | < 10 µM | Cc1cc(C(=O)/N=C(/NCC(C)(C)C)Nc2cc(C(F)(F)F)[nH]n2)ccn1 [Compound A-85] | > 10 µM | –
20 | < 10 µM | O=C(/N=C(\Nc1cc(C(F)(F)F)[nH]n1)NC1CCC(O)CC1)c1ccc(C(F)(F)F)cc1 (stereo not drawn) [Compound A-560] | – | > 10 µM
21 | < 10 µM | O=C(/N=C(/Nc1cc(F)cc(Cl)c1)Nc1cc(-c2ccccc2)[nH]n1)c1ccc(C(F)(F)F)cc1 [Compound A-151] | – | > 10 µM

Row | IC50 (F1F0-ATPase) | Compound | EC50 (Ramos cells; Homo sapiens) | EC50 (Ramos cells)
22 | < 10 µM | C[C@@H](N/C(=N\C(=O)c1ccc(Cl)c(F)c1)Nc1cc(C(F)(F)F)n[nH]1)C1CCCCC1 [Compound A-117] | < 10 µM | –
23 | < 10 µM | CC(C)(C)NC(=NC(=O)c1cccc(O)c1)Nc1cc(-c2ccc(F)cc2)n[nH]1 [Compound A-525] | < 10 µM | –
24 | > 10 µM | Cc1ccc(-c2cc(N/C(=N\C(=O)c3ccc(F)c(F)c3)Nc3cc(F)cc(Cl)c3)n[nH]2)cc1F [Compound A-126] | – | > 10 µM
25 | < 10 µM | O=C(/N=C(\Nc1cc(C(F)(F)F)n[nH]1)NC1CCCOC1)c1ccc(F)c(F)c1 (stereo not drawn) [Compound A-105] | < 10 µM | –
26 | < 10 µM | O=C(/N=C(\Nc1cc(-c2cccc(Cl)c2)n[nH]1)NC1CCOCC1)c1ccc(Cl)c(F)c1 [Compound A-463] | – | > 10 µM
27 | < 10 µM | Cc1ccc(-c2cc(N/C(=N\C(=O)c3ccc(C(F)(F)F)cc3)NC3CC3)[nH]n2)cc1F [Compound A-195] | – | < 10 µM
28 | < 10 µM | CCOCCN/C(=N/C(=O)c1ccc(F)c(F)c1)Nc1cc(-c2ccc(F)cc2)n[nH]1 [Compound A-235] | – | < 10 µM
29 | < 10 µM | CC(C)(C)CN/C(=N/C(=O)c1ccc(Cl)cc1)Nc1cc(C(F)F)[nH]n1 [Compound A-69] | < 10 µM | –
30 | – | CC1(N/C(=N/C(=O)c2ccc(Cl)c(F)c2)Nc2cc(-c3cc(F)cc(F)c3)n[nH]2)CC1 [Compound A-358] | – | < 10 µM
31 | < 10 µM | O=C(/N=C(/Nc1cc(F)cc(Cl)c1)Nc1cc(C(F)F)[nH]n1)c1ccc(F)c(F)c1 [Compound A-52] | < 10 µM | –
32 | < 10 µM | CC(C)(C)N/C(=N/C(=O)c1ccc(F)cc1)Nc1cc(-c2ccc(F)cc2)n[nH]1 [Compound A-459] | – | < 10 µM
33 | < 10 µM | COCC(C)NC(=NC(=O)c1ccc(F)c(F)c1)Nc1cc(-c2cc(F)cc(F)c2)n[nH]1 (stereo not drawn) [Compound A-363] | < 10 µM | –
34 | > 10 µM | O=C(N=C(Nc1cc(-c2ccccc2)[nH]n1)NC1CCOCC1)c1ccc(C(F)(F)F)cc1 [Compound A-466] | > 10 µM | –
35 | < 10 µM | CC(C)(C)CN/C(=N/C(=O)c1cccc(C#N)c1)Nc1cc(-c2ccc(F)cc2)[nH]n1 [Compound A-517] | – | < 10 µM
36 | < 10 µM | O=C(/N=C(/NCc1ccc(F)cc1Cl)Nc1cc(-c2ccc(F)cc2)n[nH]1)c1cccc(C(F)(F)F)c1 [Compound A-449] | – | < 10 µM
37 | < 10 µM | O=C(/N=C(/NCc1ccc(F)cc1Cl)Nc1cc(-c2ccc(Cl)cc2)n[nH]1)c1ccc(F)c(F)c1 [Compound A-478] | – | < 10 µM
38 | < 10 µM | CC(C)(C)N/C(=N/C(=O)c1cccc(C(F)(F)F)c1)Nc1cc(-c2cccc(Cl)c2)[nH]n1 [Compound A-128] | – | < 10 µM
39 | < 10 µM | C[C@H](N/C(=N\C(=O)c1ccc(C(F)(F)F)cc1)Nc1cc(C(F)(F)F)n[nH]1)C1CCCCC1 [Compound A-94] | < 10 µM | –
40 | < 10 µM | CC(C)(C)CNC(=NC(=O)c1ccc(F)c(F)c1)Nc1cc(-c2ccc(F)cc2)n[nH]1 [Compound A-522] | < 10 µM | –
41 | < 10 µM | O=C(N=C(Nc1cc(-c2ccc(F)cc2)n[nH]1)NC1CCCC1)c1ccc(Cl)cc1 [Compound A-248] | < 10 µM | –
42 | < 10 µM | CCC(COC)N/C(=N/C(=O)c1ccc(F)c(F)c1)Nc1cc(-c2ccc(F)cc2)n[nH]1 (stereo not drawn) [Compound A-268] | – | < 10 µM

Row | IC50 (F1F0-ATPase) | Compound | EC50 (Ramos cells; Homo sapiens) | EC50 (Ramos cells)
43 | < 10 µM | COc1cccc(C(=O)N=C(NCc2ccc(F)cc2Cl)Nc2cc(C(F)(F)F)n[nH]2)c1 [Compound A-542] | < 10 µM | –
44 | < 10 µM | O=C(/N=C(/NCc1ccc(F)cc1Cl)Nc1cc(-c2ccccc2)n[nH]1)c1ccc(F)c(F)c1 [Compound A-483] | – | > 10 µM
45 | < 10 µM | Cc1ccc(-c2cc(N/C(=N\C(=O)c3ccc(C(F)(F)F)cc3)NCC(C)C)[nH]n2)cc1F [Compound A-332] | – | > 10 µM
46 | < 10 µM | O=C(/N=C(\Nc1cc(C(F)(F)F)n[nH]1)NC1CCCOC1)c1ccc(Cl)cc1 (stereo not drawn) [Compound A-110] | < 10 µM | –
47 | < 10 µM | Cc1ccccc1CN/C(=N/C(=O)c1cc(F)c(F)c(F)c1)Nc1cc(-c2ccc(F)cc2)[nH]n1 [Compound A-397] | – | < 10 µM
48 | < 10 µM | CC(C)(CO)N/C(=N/C(=O)c1ccc(F)cc1)Nc1cc(-c2ccc(F)cc2)n[nH]1 [Compound A-538] | > 10 µM | –
49 | < 10 µM | O=C(N=C(Nc1cc(-c2ccc(Cl)cc2)n[nH]1)NC1CCCC1)c1ccc(Cl)c(F)c1 [Compound A-382] | < 10 µM | –
50 | < 10 µM | O=C(/N=C(/NCc1ccc(F)cc1Cl)Nc1cc(-c2ccc(F)cc2)[nH]n1)c1ccc(Cl)c(F)c1 [Compound A-142] | – | < 10 µM
51 | < 10 µM | O=C(/N=C(/Nc1cc(F)cc(Cl)c1)Nc1cc(-c2ccccc2)n[nH]1)c1ccc(F)c(F)c1 [Compound A-436] | – | > 10 µM
52 | < 10 µM | CCC(C)(C)N/C(=N/C(=O)c1ccc(C(F)(F)F)cc1)Nc1cc(C(F)(F)F)n[nH]1 [Compound A-93] | < 10 µM | –
53 | < 10 µM | CC(C)N/C(=N/C(=O)c1ccc(F)c(F)c1)Nc1cc(-c2cc(F)cc(Cl)c2)n[nH]1 [Compound A-286] | – | < 10 µM
54 | < 10 µM | O=C(/N=C(/NCc1cc(F)c(F)c(F)c1)Nc1cc(C(F)(F)F)[nH]n1)c1ccc(F)c(F)c1 [Compound A-39] | – | –
55 | – | CC(C)(C)N/C(=N/C(=O)c1ccc(Cl)c(F)c1)Nc1cc(-c2cc(F)cc(F)c2)n[nH]1 [Compound A-354] | – | < 10 µM
56 | – | COCCOCC(C)(C)N/C(=N/C(=O)c1ccc(F)cc1)Nc1cc(-c2ccc(F)cc2)n[nH]1 [Compound A-507] | – | < 10 µM
57 | – | CCC(C)N/C(=N/C(=O)c1ccc(Cl)c(F)c1)Nc1cc(-c2cc(F)cc(F)c2)n[nH]1 (stereo not drawn) [Compound A-356] | – | < 10 µM
58 | < 10 µM | COCC(C)(C)NC(=NC(=O)c1cccc(C#N)c1)Nc1cc(-c2ccc(F)cc2)n[nH]1 [Compound A-504] | – | –
59 | – | COC(=O)c1cc(N/C(=N\C(=O)c2ccc(C(F)(F)F)cc2)NC(C)(C)C)[nH]n1 [Compound A-339] | – | > 10 µM
60 | – | CC(C)(N/C(=N/C(=O)c1ccc(Cl)c(F)c1)Nc1cc(-c2cc(F)cc(F)c2)n[nH]1)C(F)(F)F [Compound A-357] | – | > 10 µM
61 | – | CC(C)CN/C(=N/C(=O)c1cccc(C#N)c1)Nc1cc(-c2ccc(F)cc2)n[nH]1 [Compound A-508] | – | < 10 µM

Row | Compound | IC50 (F1F0-ATPase) | EC50 (Ramos cells; Homo sapiens) | EC50 (Ramos cells)
62 | CC(C)N/C(=N/C(=O)c1ccc(Cl)cc1)Nc1cc(-c2cc(F)cc(F)c2)n[nH]1 [Compound A-230] | < 10 µM | – | < 10 µM
